The record followed here is patent publication US6818426B2 (Daicel Chemical Industries, Ltd., priority 2000, dated 2004).

Like-named read-outs stand apart in the source and are kept apart here.

Experiment [1] has as its system E. coli HB101 cell-free extract prepared in the absence of plasmid. In kind it is biochemical. As for the experimental part: (§1) The bacterial cells were collected by centrifugal separation and then suspended in 100 mM potassium phosphate buffer (pH 8.0) containing 0.02% 2-mercaptoethanol; the bacterial cells were lysed by the treatment with a closed sonic chamber device UCD-200TM (Cosmo Bio) for 4 minutes. The bacterial cell lysate was separated by centrifugation and the resulting supernatant was recovered as a bacterial cell extract.

Experiment [2] deals with recombinant (R)-2,3-butanediol dehydrogenase, HB101 (pSE-PAD1) cell extract. The experiment in a line: Substrate specificity of recombinant enzyme, oxidation reaction. To be noted: for HB101 (pSE-PAD1) Relative activity: glycerol = 100%. In kind it is biochemical, Pichia angusta. As for the experimental part: The quantification of polypeptide is carried out by a dye-binding method using a protein assay kit from BioRad.
as §1

Experiment [3] has as its system (R)-2,3-butanediol dehydrogenase. The experiment in a line: Substrate specificity of purified (R)-2,3-butanediol dehydrogenase (dehydrogenation activity). The format is biochemical, Pichia angusta. The conditions noted are these: substrate 500 mM; glycerol dehydrogenation activity with NAD+ as coenzyme taken as 100; ND: not detectable. The method, then:
The enzyme obtained in Example 1 was allowed to react with various reagents of 500 mM, and then the dehydrogenation activity was assayed.

Experiment [4] has the same test system. Nature of the experiment: Behavior of (R)-2,3-butanediol dehydrogenase to reagents (residual glycerol dehydrogenase activity). In kind it is biochemical, Pichia angusta. The conditions noted are these: for Inhibition of the enzyme by reagent (in words): treated at 30° C. for 10 minutes. As for the experimental part: After treated with various reagents at 30° C. for 10 minutes, glycerol dehydrogenase activity was assayed.

In experiment [5] the test system is recombinant (R)-2,3-butanediol dehydrogenase, HB101 (pSE-PAD1) cell extract. Nature of the experiment: Substrate specificity of recombinant enzyme, reduction reaction. The format is biochemical, Pichia angusta. To be noted: substrate 20 mM; for HB101 (pSE-PAD1) Relative activity: dihydroxyacetone = 100%. The method, then:
as §1

The test system of experiment [6] is E. coli HB101 cell-free extract prepared in the absence of plasmid. The experiment in a line: Host only cell-free extract, reduction reaction. The format is biochemical. To be noted: substrate 20 mM. As for the experimental part: as §1
For experiment [7], the system named is (R)-2,3-butanediol dehydrogenase. Nature of the experiment: Stereoselectivity of purified (R)-2,3-butanediol dehydrogenase. The format is biochemical, Pichia angusta. The method, then:
The enzyme obtained in Example 1 was allowed to react with each of the two isomers 1,2-propanediol and 2,3-butanediol (500 mM each).

Where [8] appears, read: oxidation reaction, substrate 100 mM.
The mark [9] stands for this setting: reagent 1 mM, 30° C. for 10 minutes, glycerol dehydrogenase activity.
The mark [10] stands for this setting: oxidation reaction, substrate 50 mM.

For `CCC(O)CO` (racemic) [(RS)-1,2-butanediol], the Host only activity in experiment [1] (setting [8]) is on record as 0.002 U/mg. In experiment [2] (substrate 100 mM), the “HB101 (pSE-PAD1) activity” value is given as 0.200 U/mg and the “HB101 (pSE-PAD1) Relative activity” value turned out to be 87.6%.
For the compound `CCC(O)CO` (stereo not drawn) [1,2-butanediol], the Relative activity in experiment [3] was found to be 130%.
Consider `CC(O)CO` (stereo not drawn) [1,2-propanediol], for which the Relative activity in experiment [3] came out at 700%.
In the case of `CC(O)CCO` (stereo not drawn) [1,3-butanediol], in experiment [3], the Relative activity is on record as 58%.
In the case of `c1ccc(-c2ccccn2)nc1` [2,2′-dipyridyl], the Residual activity in experiment [4] (setting [9]) amounted to 0%. The “Inhibition of the enzyme by reagent (in words)” value (“Inhibition of the enzyme” below) in experiment [4] is listed as “markedly inhibited”.
Regarding `CC(O)C(C)O` (stereo not drawn) [2,3-butanediol], in experiment [3], the Relative activity stood at 3030%.
On to `CC(=O)C(C)=O` [2,3-butanedion], for which, in experiment [5], the “HB101 (pSE-PAD1) activity” value worked out at 1.906 U/mg and the “HB101 (pSE-PAD1) Relative activity” value was 195%. This compound also came in with a Host only activity in experiment [6] of 0.018 U/mg.
On to `CCC(C)=O` [2-butanone], for which, in experiment [5], the “HB101 (pSE-PAD1) activity” value is 0.008 U/mg and the “HB101 (pSE-PAD1) Relative activity” value was found to be 0.8%. Further, the Host only activity in experiment [6] turned out to be 0.002 U/mg.
As to `CC(=O)C(C)O` (stereo not drawn) [3-hydroxy-2-butanone], the “HB101 (pSE-PAD1) activity” value in experiment [5] was 0.696 U/mg; in experiment [2] (substrate 50 mM), 0.020 U/mg. Also, the “HB101 (pSE-PAD1) Relative activity” value in experiment [5] turned out to be 71.2%; in experiment [2] (substrate 50 mM) it was 8.8%. Besides, the Host only activity is listed as 0.006 U/mg in experiment [1] (setting [10]) and 0.009 U/mg in experiment [6].
With `CC(=O)CCO` [4-hydroxy-2-butanone], in experiment [5], the “HB101 (pSE-PAD1) activity” value worked out at 0.011 U/mg and the “HB101 (pSE-PAD1) Relative activity” value is 1.1%. In experiment [6], this compound returned a Host only activity of 0.006 U/mg.
In turn, `C[C@H](O)[C@H](C)O` [(2S,3S)-2,3-butanediol] had a Host only activity in experiment [1] (setting [10]) of 0 U/mg. In experiment [2] (substrate 50 mM), the “HB101 (pSE-PAD1) activity” value was 0.059 U/mg and the “HB101 (pSE-PAD1) Relative activity” value was 26.1%.
The compound `C[C@@H](O)CO` [(R)-1,2-propanediol] yielded a Host only activity in experiment [1] (setting [10]) of 0 U/mg. In experiment [2] (substrate 50 mM), the “HB101 (pSE-PAD1) activity” value was determined as 1.077 U/mg and the “HB101 (pSE-PAD1) Relative activity” value came to 473%. Further, the Relative activity in experiment [7] amounted to 2000%.
With `C[C@@H](O)CCO` [(R)-1,3-butanediol], the Host only activity in experiment [1] (setting [10]) was 0 U/mg. In experiment [2] (substrate 50 mM), the “HB101 (pSE-PAD1) activity” value is on record as 0.259 U/mg and the “HB101 (pSE-PAD1) Relative activity” value is reported as 114%.
Turning to `C[C@@H](O)CO` [(R)-2,3-propanediol], the Relative activity in experiment [7] is recorded as 6100%.
Regarding `OC[C@@H](O)CCl` [(R)-3-chloro-1,2-propanediol], in experiment [1] (setting [10]), the Host only activity was determined as 0 U/mg. In experiment [2] (substrate 50 mM), the “HB101 (pSE-PAD1) activity” value was found to be 0.002 U/mg and the “HB101 (pSE-PAD1) Relative activity” value is recorded as 0.9%.
Regarding `C[C@H](O)CO` [(S)-1,2-propanediol], in experiment [1] (setting [10]), the Host only activity amounted to 0 U/mg. Also, in experiment [2] (substrate 50 mM), the “HB101 (pSE-PAD1) activity” value was determined as 0.246 U/mg and the “HB101 (pSE-PAD1) Relative activity” value came out at 108%. Also, the Relative activity in experiment [7] is recorded as 400%.
Consider `C[C@H](O)CCO` [(S)-1,3-butanediol], for which the Host only activity in experiment [1] (setting [10]) was 0 U/mg. In experiment [2] (substrate 50 mM), the “HB101 (pSE-PAD1) activity” value turned out to be 0.042 U/mg and the “HB101 (pSE-PAD1) Relative activity” value was determined as 18.3%.
For the compound `C[C@H](O)CO` [(S)-2,3-propanediol], the Relative activity in experiment [7] is reported as 160%.
For the compound `OC[C@H](O)CCl` [(S)-3-chloro-1,2-propanediol], in experiment [1] (setting [10]), the Host only activity is reported as 0.001 U/mg. Besides, in experiment [2] (substrate 50 mM), the “HB101 (pSE-PAD1) activity” value is reported as 0.057 U/mg and the “HB101 (pSE-PAD1) Relative activity” value was 24.8%.
For the compound `O=C(O)c1cc(SSc2ccc([N+](=O)[O-])c(C(=O)O)c2)ccc1[N+](=O)[O-]` [DTNB, 5,5′-dithiobis (2-nitrobenzoic acid)], the Residual activity in experiment [4] (setting [9]) was 59%.
With `O=C(O)CN(CCN(CC(=O)O)CC(=O)O)CC(=O)O` [EDTA, ethylenediaminetetraacetic acid], the Residual activity in experiment [4] (setting [9]) amounted to 93%. Moreover, the “Inhibition of the enzyme” value in experiment [4] is given as “not”.
Take `OCC(O)CO` [Glycerol]: the Host only activity in experiment [1] (setting [8]) worked out at 0 U/mg. Moreover, in experiment [2] (substrate 100 mM), the “HB101 (pSE-PAD1) activity” value is given as 0.228 U/mg and the “HB101 (pSE-PAD1) Relative activity” value stood at 100%. The Relative activity in experiment [3] turned out to be 100%. Further, the Relative activity in experiment [7] (substrate 500 mM, activity to glycerol taken as 100) was found to be 100%.
`CC(=O)CO` [Hydroxyacetone]: in experiment [5], the “HB101 (pSE-PAD1) activity” value turned out to be 0.364 U/mg and the “HB101 (pSE-PAD1) Relative activity” value came to 37.2%. In addition, the Host only activity in experiment [6] stood at 0 U/mg.
In experiment [1] (setting [10]), `CC(O)C(C)O` (stereo not drawn) [Meso-2,3-butanediol] came in with a Host only activity of 0 U/mg. For the same compound, in experiment [2] (substrate 50 mM), the “HB101 (pSE-PAD1) activity” value was 1.163 U/mg and the “HB101 (pSE-PAD1) Relative activity” value was 509%.
Consider `O=C(O)c1cc[c]([Hg][Cl])cc1` [PCMB, p-chloromercuribenzoic acid], for which, in experiment [4] (reagent 0.1 mM, 30° C. for 10 minutes, glycerol dehydrogenase activity), the Residual activity amounted to 0%. In addition, in experiment [4], the “Inhibition of the enzyme” value is recorded as “markedly inhibited”.
Regarding `NNc1ccccc1` [Phenylhydrazine], in experiment [4] (setting [9]), the Residual activity came out at 110%.
`[Ba+2].[Cl-].[Cl-]` [barium chloride]: the Residual activity in experiment [4] was 112%.
Same read-out and setting: next, `[Ca+2].[Cl-].[Cl-]` [calcium chloride]: 105%.
Consider `[Cl][Co][Cl]` [cobalt chloride], for which the Residual activity in experiment [4] (setting [9]) came out at 102%.
Take `[Cl][Cu][Cl]` [copper chloride]: in experiment [4] (setting [9]), the Residual activity worked out at 0%. Also, in experiment [4], the “Inhibition of the enzyme” value is reported as “markedly inhibited”.
Regarding `O=C(O)CI` [iodoacetic acid], the Residual activity in experiment [4] turned out to be 91%.
For `[Cl][Fe][Cl]` [iron (II) chloride], in experiment [4] (setting [9]), the Residual activity is given as 163%.
For the compound `[Cl][Fe]([Cl])[Cl]` [iron (III) chloride], in experiment [4] (setting [9]), the Residual activity was determined as 0%. Also, in experiment [4], the “Inhibition of the enzyme” value is “markedly inhibited”.
With `[Cl-].[Li+]` [lithium chloride], the Residual activity in experiment [4] (setting [9]) turned out to be 101%.
Turning to `[Cl-].[Cl-].[Mg+2]` [magnesium chloride], the Residual activity in experiment [4] was found to be 105%.
In the case of `[Cl][Hg][Cl]` [mercury chloride], the Residual activity in experiment [4] (setting [9]) came to 0%. The “Inhibition of the enzyme” value in experiment [4] was “markedly inhibited”.
`[Cl][Ni][Cl]` [nickel chloride]: the Residual activity in experiment [4] was 99%.
Take `c1cnc2c(c1)ccc1cccnc12` [o-phenanthroline]: the Residual activity in experiment [4] (setting [9]) worked out at 0%. Further, the “Inhibition of the enzyme” value in experiment [4] is on record as “markedly inhibited”.
As for `[Cl-].[Cl-].[Zn+2]` [zinc chloride], the Residual activity in experiment [4] turned out to be 113%.
Take (R)-1-amino-2-propanol: the Host only activity in experiment [1] was determined as 0.007 U/mg. In experiment [2] (substrate 50 mM), the “HB101 (pSE-PAD1) activity” value is 0.051 U/mg and the “HB101 (pSE-PAD1) Relative activity” value is 22.2%.
On the same counts, the results for (R)-2-butanol are 0 U/mg, 0.022 U/mg and 9.6%.
On the same counts, the results for (S)-1-amino-2-propanol are 0.007 U/mg, 0.018 U/mg and 8.0%.
On the same counts, the results for (S)-2-butanol are 0 U/mg, 0.024 U/mg and 10.7%.
As for manganese chloride, in experiment [4], the Residual activity is reported as 105%.
